Test results reported in BindingDB's records for doi:10.1039/c4ob00214h (Lanzhou University, 2014).

How the values were obtained:
[1] = molecular target: T1, Tyrosine-protein phosphatase non-receptor type 1 (Homo sapiens, UniProt P18031)
T1 sequence (P18031 whole entry): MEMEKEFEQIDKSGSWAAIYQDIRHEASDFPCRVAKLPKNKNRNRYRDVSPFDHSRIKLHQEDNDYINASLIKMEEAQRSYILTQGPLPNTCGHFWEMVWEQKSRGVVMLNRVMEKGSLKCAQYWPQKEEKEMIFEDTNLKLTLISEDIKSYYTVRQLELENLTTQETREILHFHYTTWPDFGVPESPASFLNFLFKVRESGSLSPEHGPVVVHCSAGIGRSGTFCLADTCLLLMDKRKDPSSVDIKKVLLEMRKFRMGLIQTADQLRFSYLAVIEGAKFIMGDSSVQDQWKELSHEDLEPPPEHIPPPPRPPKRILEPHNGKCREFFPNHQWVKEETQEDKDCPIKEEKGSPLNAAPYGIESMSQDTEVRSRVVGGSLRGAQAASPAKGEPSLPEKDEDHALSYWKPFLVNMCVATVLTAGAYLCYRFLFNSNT

[2] = molecular target: T2, Tyrosine-protein phosphatase non-receptor type 2 (Homo sapiens, UniProt P17706)
T2 sequence (P17706 whole entry): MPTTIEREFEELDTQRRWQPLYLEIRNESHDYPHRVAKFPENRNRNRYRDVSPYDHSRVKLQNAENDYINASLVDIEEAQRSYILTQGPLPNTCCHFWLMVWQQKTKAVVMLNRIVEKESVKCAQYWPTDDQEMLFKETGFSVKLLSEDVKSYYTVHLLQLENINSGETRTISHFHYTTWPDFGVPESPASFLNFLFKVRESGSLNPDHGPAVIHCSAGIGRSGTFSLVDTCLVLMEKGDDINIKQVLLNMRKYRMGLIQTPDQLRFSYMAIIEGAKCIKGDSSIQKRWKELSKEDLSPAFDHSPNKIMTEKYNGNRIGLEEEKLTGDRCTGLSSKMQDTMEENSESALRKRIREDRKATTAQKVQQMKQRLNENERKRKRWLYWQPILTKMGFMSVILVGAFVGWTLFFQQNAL

[3] = molecular target: T3, M-phase inducer phosphatase 2 (Homo sapiens, UniProt P30305)
T3 sequence (P30305 whole entry): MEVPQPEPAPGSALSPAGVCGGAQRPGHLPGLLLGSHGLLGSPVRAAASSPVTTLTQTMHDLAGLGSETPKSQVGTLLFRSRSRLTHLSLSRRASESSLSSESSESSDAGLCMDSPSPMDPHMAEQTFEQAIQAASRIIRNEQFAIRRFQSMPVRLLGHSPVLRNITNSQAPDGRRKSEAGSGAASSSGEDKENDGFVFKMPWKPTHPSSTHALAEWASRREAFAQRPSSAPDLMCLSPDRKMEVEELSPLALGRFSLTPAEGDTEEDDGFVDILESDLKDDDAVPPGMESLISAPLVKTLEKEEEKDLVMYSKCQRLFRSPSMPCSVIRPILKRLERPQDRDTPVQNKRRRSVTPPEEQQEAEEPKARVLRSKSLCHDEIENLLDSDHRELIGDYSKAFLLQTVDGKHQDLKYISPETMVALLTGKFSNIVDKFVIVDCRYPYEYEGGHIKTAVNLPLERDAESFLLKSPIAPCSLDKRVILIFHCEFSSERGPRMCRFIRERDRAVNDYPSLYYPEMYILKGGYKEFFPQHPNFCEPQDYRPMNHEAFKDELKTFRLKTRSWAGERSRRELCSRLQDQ

[4] = molecular target: Tyrosine-protein phosphatase non-receptor type 6 (Homo sapiens, UniProt P29350)
[5] = molecular target: T4, Tyrosine-protein phosphatase non-receptor type 11 (Homo sapiens, UniProt Q06124)
T4 sequence (Q06124 whole entry): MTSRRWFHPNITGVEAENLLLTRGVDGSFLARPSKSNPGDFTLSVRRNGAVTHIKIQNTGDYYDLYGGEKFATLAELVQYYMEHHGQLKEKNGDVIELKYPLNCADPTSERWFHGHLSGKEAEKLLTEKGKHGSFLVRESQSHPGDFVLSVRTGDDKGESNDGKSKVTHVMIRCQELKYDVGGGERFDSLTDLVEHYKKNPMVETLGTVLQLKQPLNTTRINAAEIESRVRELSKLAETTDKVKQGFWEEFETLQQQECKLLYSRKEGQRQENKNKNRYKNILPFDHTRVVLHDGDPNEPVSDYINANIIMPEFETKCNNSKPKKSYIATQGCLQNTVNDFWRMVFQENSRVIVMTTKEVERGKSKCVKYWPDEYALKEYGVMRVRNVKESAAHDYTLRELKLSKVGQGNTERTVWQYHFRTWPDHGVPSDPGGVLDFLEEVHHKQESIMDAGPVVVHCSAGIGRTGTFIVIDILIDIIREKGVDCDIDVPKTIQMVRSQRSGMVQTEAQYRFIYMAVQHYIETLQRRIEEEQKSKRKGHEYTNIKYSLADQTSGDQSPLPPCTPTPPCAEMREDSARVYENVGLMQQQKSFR

Chain of Tyrosine-protein phosphatase non-receptor type 6 (P29350 whole entry): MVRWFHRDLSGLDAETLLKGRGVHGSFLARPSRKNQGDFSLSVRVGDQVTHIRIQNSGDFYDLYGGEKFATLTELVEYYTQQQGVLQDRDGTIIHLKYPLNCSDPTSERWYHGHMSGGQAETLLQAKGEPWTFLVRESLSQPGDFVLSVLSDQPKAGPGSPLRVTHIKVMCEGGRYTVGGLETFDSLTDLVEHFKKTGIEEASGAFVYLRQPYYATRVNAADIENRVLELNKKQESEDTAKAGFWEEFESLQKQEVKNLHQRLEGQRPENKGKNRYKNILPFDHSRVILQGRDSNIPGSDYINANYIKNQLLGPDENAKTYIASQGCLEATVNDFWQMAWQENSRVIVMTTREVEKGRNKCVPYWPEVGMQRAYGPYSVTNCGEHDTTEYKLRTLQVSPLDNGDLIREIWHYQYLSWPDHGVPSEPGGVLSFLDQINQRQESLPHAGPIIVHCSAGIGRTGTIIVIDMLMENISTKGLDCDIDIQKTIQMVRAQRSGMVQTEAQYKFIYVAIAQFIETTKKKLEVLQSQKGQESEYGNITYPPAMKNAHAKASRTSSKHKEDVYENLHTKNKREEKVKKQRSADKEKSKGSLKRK

SMILES | IC50 [1] [µM] | IC50 [2] [µM] | IC50 [3] [µM] | IC50 [4] [µM] | IC50 [5] [µM]
CCCCCCCCCCCCC/C=C/[C@@]12C(=O)O[C@@H](C)[C@@H]1[C@H]1C(=CC2CCCCCCCCCCCC)C(=O)O[C@H]1C (stereo partly drawn) [(1R,2S,3S,8R,9S,12S)-8-dodecyl-3,12-dimethyl-9-[(1E)-pentadec-1-en-1-yl]-4,11-dioxatricyclo[7.3.0.0,⁶]dodec-6-ene-5,10-dione (7)] | 4.27 | 31.8 | 3.93 |  | 
CCCCCCCCCCCC/C=C/[C@@]12C(=O)O[C@@H](C)[C@@H]1[C@H]1C(=C[C@H]2CCCCCCCCCCCC)C(=O)O[C@H]1C [(1R,2S,3S,8R,9S,12S)-8-dodecyl-3,12-dimethyl-9-[(1E)-tetradec-1-en-1-yl]-4,11-dioxatricyclo[7.3.0.0,⁶]dodec-6-ene-5,10-dione (6)] | 3.25 | 13.2 | 2.34 |  | 
CCCCCCCCCCCC[C@@H]1C=C2C(=O)O[C@@]3(C)O[C@@]4(C)OC(=O)[C@]1(C=O)[C@H]4[C@@H]23 [(1S,4S,5R,10R,11S,12R)-5-dodecyl-1,10-dimethyl-3,8-dioxo-2,9,13-trioxatetracyclo[8.2.1.0⁴,.0⁷,]tridec-6-ene-4-carbaldehyde (14)] | 6 | 9.38 | 8.33 |  | 
CCCCCCCCCCCCC/C=C/[C@@]12C(=O)O[C@@H](C)[C@@H]1[C@H](C(C)=O)C(C(=O)O)=C[C@H]2CCCCCCCCCCCC [(3S,3aR,4S,7R,7aS)-4-acetyl-7-dodecyl-3-methyl-1-oxo-7a-[(1E)-pentadec-1-en-1-yl]-1,3,3a,4,7,7a-hexahydro-2-benzofuran-5-carboxylic acid (9)] | 0.27 | 2.55 | 0.22 | 3.86 | 3.13
CCCCCCCCCCCC/C=C/[C@]12C(=O)O[C@]3(C)O[C@]4(C)OC(=O)C(=C[C@H]1CCCCCCCCCCCC)[C@@H]4[C@@H]32 [Paracaseolide A (13)] | 1.5 | 6.01 | 2.34 |  | 

More lines, in order of falling IC50 [1], values ahead:

IC50 [1] [µM] | IC50 [2] [µM] | IC50 [3] [µM] | IC50 [4] [µM] | IC50 [5] [µM] | SMILES
20.4 | 19.8 | 17 |  |  | CCCCCCCCCCCC[C@@H]1C=C2C(=O)O[C@@]3(C)O[C@@]4(C)OC(=O)[C@]1(CO)[C@H]4[C@@H]23 [(1R,6R,7S,10S,11R,12S)-6-dodecyl-7-(hydroxymethyl)-1,10-dimethyl-2,9,13-trioxatetracyclo[8.2.1.0⁴,.0⁷,]tridec-4-ene-3,8-dione (15)]
0.27 | 4.73 | 0.2 | 4.41 | 1.71 | CCCCCCCCCCCCC/C=C/[C@@]12C(=O)O[C@@H](C)[C@@H]1[C@H](C(C)=O)C(C(=O)O)=CC2CCCCCCCCCCCC (stereo partly drawn) [(3S,3aR,4S,7aS)-4-acetyl-7-dodecyl-3-methyl-1-oxo-7a-[(1E)-pentadec-1-en-1-yl]-1,3,3a,4,7,7a-hexahydro-2-benzofuran-5-carboxylic acid (10)]
